Among the data in US11548870B2, “Compounds useful as inhibitors of helios protein” (Bristol-Myers Squibb Company, priority 2019, dated 2023) are DC50 and Dmax values, retold here.

A value given as a limit tells only on which side of the number the result lay.

The target in one assay is T1, Helios (Homo sapiens, UniProt Q96SW2+Q9UKS7).
T1 construct: fluorescently labelled antibodies against Helios and Ikaros; endogenous in cells; host or cells: Jurkat cells
Nature of the assay: Helios Cellular Degradation Assay (flow cytometry, Helios-PE antibody staining, 72 h). It is filed as cell-based. To be noted: Jurkat cells, 72 h incubation, flow cytometry; for Dmax: Jurkat, read-out: Helios Dmax. The method, then: (§1) Helios Cellular Degradation Assay
(§2) Jurkat cells were plated at 80,000 cells/well in 40 μL RPMI+10% FBS in a 384 well cell culture plate prior to using acoustic dispensing technology for adding compound of interest. Cell cultures were incubated for 72 h at 37° C. and 5% CO2. In order to facilitate analysis, cell cultures were spun down at 200 rpm for 5 min and the supernatant was discarded. After shaking the plate to dislodge the cell pellet, cells were resuspended in 50 μL of Fixation Buffer (eBioScience FoxP3 buffer set 0000) for 60 min at room temperature. After centrifuging and discarding the supernatant, cells were permeabilized with 50 μL of Permeabilization buffer (eBioScience FoxP3 buffer set 00-5523-00) for 10 min at room temperature. Following permeabilization, cells were spun down and the supernatant was replaced with 20 μL fluorescently labelled antibodies against Helios and Ikaros or corresponding Isotype controls in 1× Permeabilization buffer (Ikaros-Alexa488 [Biolegend, Cat #368408, 1:50], Helios-PE [CST, Cat #29360, 1:50]) and staining reactions were incubated for 1 h at room temperature; protected from light. Subsequently, 30 μL of 1× Permeabilization buffer was added prior to centrifuging the cells and discarding the supernatant. Stained cells were resuspended in 25 μL of flow cytometry staining buffer (PBS+0.2% BSA) and analyzed using an Intellicyt Ique Plus flow cytometer.
as §2, with “00-5523-00)” for “0000)”
In general terms: Flow cytometry measures light scatter and fluorescence of single cells or particles in a stream.

The next assay deals with T2, Ikaros (Homo sapiens, UniProt Q13422).
T2 construct: fluorescently labelled antibodies against Helios and Ikaros; endogenous in cells; host or cells: Jurkat cells
Nature of the assay: Helios Cellular Degradation Assay, Ikaros readout (flow cytometry, Ikaros-Alexa488 antibody staining, 72 h). The format is cell-based. Particulars: Jurkat cells, 72 h incubation, flow cytometry; for Dmax: Jurkat, read-out: Ikaros Dmax. The protocol: as §1, §2
as §2, with “00-5523-00)” for “0000)”

For orientation: DC50 means the concentration giving 50% degradation. Low values mean a more potent degrader, high ones a less potent degrader. The term Dmax denotes the greatest extent of degradation seen.

T1 sequence (Q9UKS7 whole entry): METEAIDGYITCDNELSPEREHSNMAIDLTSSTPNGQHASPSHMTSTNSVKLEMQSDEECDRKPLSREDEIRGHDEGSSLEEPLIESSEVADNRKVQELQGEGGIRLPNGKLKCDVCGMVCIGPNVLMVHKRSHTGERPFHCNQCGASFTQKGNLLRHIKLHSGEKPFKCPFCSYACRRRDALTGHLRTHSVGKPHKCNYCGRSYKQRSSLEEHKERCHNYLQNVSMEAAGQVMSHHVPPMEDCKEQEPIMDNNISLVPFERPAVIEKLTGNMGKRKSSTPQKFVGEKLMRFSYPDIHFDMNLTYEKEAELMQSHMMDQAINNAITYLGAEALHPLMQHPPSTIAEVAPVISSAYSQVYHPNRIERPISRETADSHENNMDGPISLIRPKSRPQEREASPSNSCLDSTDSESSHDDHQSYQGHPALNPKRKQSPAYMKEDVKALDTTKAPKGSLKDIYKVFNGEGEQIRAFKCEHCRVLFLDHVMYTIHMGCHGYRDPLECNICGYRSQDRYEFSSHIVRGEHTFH
T1 sequence (Q96SW2 whole entry): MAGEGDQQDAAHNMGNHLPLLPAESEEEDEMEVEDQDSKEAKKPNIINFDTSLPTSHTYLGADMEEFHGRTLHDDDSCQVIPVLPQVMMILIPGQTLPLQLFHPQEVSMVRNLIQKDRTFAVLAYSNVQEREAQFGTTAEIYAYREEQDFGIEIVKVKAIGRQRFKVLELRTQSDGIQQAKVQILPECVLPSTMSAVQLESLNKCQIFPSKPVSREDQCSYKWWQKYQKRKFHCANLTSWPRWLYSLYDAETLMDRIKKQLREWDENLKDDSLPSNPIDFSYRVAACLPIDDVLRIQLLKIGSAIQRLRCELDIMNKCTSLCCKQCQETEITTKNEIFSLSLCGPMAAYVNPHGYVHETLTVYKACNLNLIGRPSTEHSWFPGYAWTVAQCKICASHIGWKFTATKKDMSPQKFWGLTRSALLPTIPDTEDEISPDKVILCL
T1 sequence (Q16531 whole entry partner): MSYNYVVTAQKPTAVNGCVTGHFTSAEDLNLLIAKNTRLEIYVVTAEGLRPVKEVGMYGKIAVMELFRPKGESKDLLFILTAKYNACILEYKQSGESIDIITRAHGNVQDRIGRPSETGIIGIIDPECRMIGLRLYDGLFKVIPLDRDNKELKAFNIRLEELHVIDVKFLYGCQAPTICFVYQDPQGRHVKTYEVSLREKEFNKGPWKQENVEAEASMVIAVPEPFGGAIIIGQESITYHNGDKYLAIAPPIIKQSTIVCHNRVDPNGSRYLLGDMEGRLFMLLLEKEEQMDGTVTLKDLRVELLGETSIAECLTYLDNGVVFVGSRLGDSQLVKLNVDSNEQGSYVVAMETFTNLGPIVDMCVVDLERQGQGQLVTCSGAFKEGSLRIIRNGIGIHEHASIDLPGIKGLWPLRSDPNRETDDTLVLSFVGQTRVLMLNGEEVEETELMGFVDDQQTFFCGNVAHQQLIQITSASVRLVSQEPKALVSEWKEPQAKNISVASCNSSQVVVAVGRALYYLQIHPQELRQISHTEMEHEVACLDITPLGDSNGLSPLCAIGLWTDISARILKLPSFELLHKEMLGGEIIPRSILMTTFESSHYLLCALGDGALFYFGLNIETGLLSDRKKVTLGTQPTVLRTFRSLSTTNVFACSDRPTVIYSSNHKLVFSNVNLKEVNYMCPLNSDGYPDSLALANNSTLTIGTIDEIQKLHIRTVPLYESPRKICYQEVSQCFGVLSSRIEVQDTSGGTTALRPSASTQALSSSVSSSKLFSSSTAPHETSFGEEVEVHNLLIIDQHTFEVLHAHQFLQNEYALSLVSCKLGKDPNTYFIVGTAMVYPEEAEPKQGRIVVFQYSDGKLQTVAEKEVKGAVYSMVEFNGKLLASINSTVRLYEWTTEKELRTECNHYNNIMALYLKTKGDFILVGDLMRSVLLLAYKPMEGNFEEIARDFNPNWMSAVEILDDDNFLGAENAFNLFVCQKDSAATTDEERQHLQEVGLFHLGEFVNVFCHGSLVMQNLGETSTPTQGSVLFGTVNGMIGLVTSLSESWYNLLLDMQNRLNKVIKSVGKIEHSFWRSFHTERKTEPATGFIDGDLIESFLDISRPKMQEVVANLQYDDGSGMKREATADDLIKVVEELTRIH
T2 sequence (Q96SW2 whole entry partner): as the sequence (Q96SW2 whole entry) above
T2 sequence (Q16531 whole entry partner): as the sequence (Q16531 whole entry partner) above
T2 sequence (Q13422 whole entry): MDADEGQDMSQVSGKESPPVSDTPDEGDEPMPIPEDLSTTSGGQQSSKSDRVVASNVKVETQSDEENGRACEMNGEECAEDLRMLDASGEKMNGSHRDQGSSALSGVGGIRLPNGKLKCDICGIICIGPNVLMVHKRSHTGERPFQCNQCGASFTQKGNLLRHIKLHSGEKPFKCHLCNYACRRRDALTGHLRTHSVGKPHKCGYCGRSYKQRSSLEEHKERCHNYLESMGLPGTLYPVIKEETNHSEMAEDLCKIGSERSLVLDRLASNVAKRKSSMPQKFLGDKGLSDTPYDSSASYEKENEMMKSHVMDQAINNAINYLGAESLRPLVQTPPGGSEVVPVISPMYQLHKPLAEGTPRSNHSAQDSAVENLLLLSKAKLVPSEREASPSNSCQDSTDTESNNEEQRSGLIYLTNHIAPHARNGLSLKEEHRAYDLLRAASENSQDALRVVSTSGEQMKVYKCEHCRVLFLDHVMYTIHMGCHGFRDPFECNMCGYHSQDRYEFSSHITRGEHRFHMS

Consider `CC1(C)CCCN(Cc2ccnc(-c3ccc4c(c3)CN(C3CCC(=O)NC3=O)C4=O)c2)C1` (stereo not shown) [Example 85, 3-(5-(4-((3,3-dimethylpiperidin-1-yl)methyl)pyridin-2-yl)-1-oxoisoindolin-2-yl)piperidine-2,6-dione], for which, at Helios, the DC50 was more than 10 µM and the Dmax was 20%. Besides, at Ikaros, the DC50 is more than 10 µM and the Dmax is 7%.
As to `COc1ccc(CNCc2ccnc(-c3ccc4c(c3)CN(C3CCC(=O)NC3=O)C4=O)c2)cc1` (stereo not shown) [Example 67, 3-(5-(4-(((4-methoxybenzyl)amino)methyl)pyridin-2-yl)-1-oxoisoindolin-2-yl)piperidine-2,6-dione], at Helios, the DC50 was more than 10 µM and the Dmax amounted to 41%. Also, at Ikaros, the DC50 was more than 10 µM and the Dmax was 6%.
Consider `O=C1CCC(N2Cc3cc(-c4cc(CNCCc5ccccc5)ccn4)ccc3C2=O)C(=O)N1` (stereo not shown) [Example 63, 3-(1-oxo-5-(4-((phenethylamino)methyl)pyridin-2-yl)isoindolin-2-yl)piperidine-2,6-dione], for which, on Helios, the DC50 is 0.014 µM and the Dmax is 80%. Also, at Ikaros, the DC50 is more than 10 µM and the Dmax came to 13%.
As for `CN(C)C1CCN(Cc2ccnc(-c3ccc4c(c3)CN(C3CCC(=O)NC3=O)C4=O)c2)CC1` (stereo not shown) [Example 40, 3-(5-(4-((4-(dimethylamino)piperidin-1-yl)methyl)pyridin-2-yl)-1-oxoisoindolin-2-yl)piperidine-2,6-dione], the DC50 on Helios and at Ikaros was more than 10 µM each time. Further, the Dmax on Helios is 9%; on Ikaros, 8%.
Consider `CN1CCN(Cc2ccnc(-c3ccc4c(c3)CN(C3CCC(=O)NC3=O)C4=O)c2)CC1` (stereo not shown) [Example 35, 3-(5-(4-((4-methylpiperazin-1-yl)methyl)pyridin-2-yl)-1-oxoisoindolin-2-yl)piperidine-2,6-dione], for which the DC50 is 0.869 µM at Helios and more than 10 µM on Ikaros. Also, the figures for the Dmax at Helios and at Ikaros were 63% and 30%, respectively.
Taken in the same sequence, the figures for `COC(=O)c1ccc(CN(C)Cc2ccnc(-c3ccc4c(c3)CN(C3CCC(=O)NC3=O)C4=O)c2)cc1` (stereo not shown) [Example 153, methyl 4-((((2-(2-(2,6-dioxopiperidin-3-yl)-1-oxoisoindolin-5-yl)pyridin-4-yl)methyl)(methyl)amino)methyl)benzoate] were 4.71 µM, more than 10 µM, 58% and 7%.
Regarding `CN1CCCN(Cc2ccnc(-c3ccc4c(c3)CN(C3CCC(=O)NC3=O)C4=O)c2)CC1` (stereo not shown) [Example 43, 3-(5-(4-((4-methyl-1,4-diazepan-1-yl)methyl)pyridin-2-yl)-1-oxoisoindolin-2-yl) piperidine-2,6-dione], on Helios, the DC50 is more than 10 µM and the Dmax was 10%. Also, on Ikaros, the DC50 was more than 10 µM and the greatest degradation seen (Dmax) was found to be 3%.
As to `NCc1ccnc(-c2ccc3c(c2)CN(C2CCC(=O)NC2=O)C3=O)c1` (stereo not shown) [Example 144, 3-{5-[4-(Aminomethyl)pyridin-2-yl]-1-oxo-2,3-dihydro-1H-isoindol-2-yl}piperidine-2,6-dione], the DC50 at Helios was 2.02 µM; on Ikaros, more than 10 µM. Besides, the Dmax is 57% on Helios and 11% on Ikaros.
For `COc1ccc(CCNCc2ccnc(-c3ccc4c(c3)CN(C3CCC(=O)NC3=O)C4=O)c2)cc1` (stereo not shown) [Example 95, 3-(5-(4-(((4-methoxyphenethyl)amino)methyl)pyridin-2-yl)-1-oxoisoindolin-2-yl)piperidine-2,6-dione] the same measures were 0.034 µM, more than 10 µM, 94% and 17%.
For `O=C1CCC(N2Cc3cc(-c4cc(CNCCc5cccc(Cl)c5)ccn4)ccc3C2=O)C(=O)N1` (stereo not shown) [Example 102, 3-(5-(4-(((3-chlorophenethyl)amino)methyl)pyridin-2-yl)-1-oxoisoindolin-2-yl)piperidine-2,6-dione], on Helios, the DC50 amounted to 0.011 µM and the Dmax was 97%. On Ikaros, the DC50 was more than 10 µM and the greatest degradation seen (Dmax) was 10%.
